Assay results as given in patent publication US20220242812A1, “SWELL1-LRRC8 COMPLEX MODULATORS” (Washington University, priority 2019, published 2022).
Blank lines part the entries; values can stand above or below the molecule they belong to.

Experiments:
[1] = test system: polygenic T2D KKAy mice; experiment: Metabolic phenotyping (fasting glucose, GTT, ITT) in polygenic T2D KKAy mice; type: in vivo; conditions: polygenic T2D KKAy model, 5 mg/kg i.p. 4 days
Source text: All C57BL/6 mice involved in study were purchased from Charles River Labs. Both KK.Cg-Ay/J (KKN) and KK.Cg-Aa/J (KKAa) mice involved in study were gender and age-matched mice obtained from Jackson Labs (Stock No: 002468) and bred up for experiments. The mice were fed ad libitum with either regular chow (RC) or high-fat diet (Research Diets, Inc., 60 kcal % fat) with free access to water and housed in a light-, temperature- and humidity-controlled room. For high-fat diet (HFD) studies, only male mice were used and were started on HFD regimen at the age of 6-9 weeks. For all experiments involving KKN and KKAa mice, both males and females were used at approximately 50/50 ratio. In all experiments involving mice, investigators were kept blinded both during the experiments and subsequent analysis.
All compounds were dissolved in Kolliphor® EL (Sigma, #C5135).
Mice were fasted for 6 h prior to glucose tolerance tests (GTT). Baseline glucose levels at 0 min timepoint (fasting glucose, FG) were measured from blood sample collected from tail snipping using glucometer (Bayer Healthcare LLC). Either 1 g or 0.75 g D-Glucose/kg body weight were injected (i.p.) for lean or HFD mice, respectively and glucose levels were measured at 7, 15, 30, 60, 90 and 120 min timepoints after injection. For insulin tolerance tests (ITTs), the mice were fasted for 4 h. Similar to GTTs, the baseline blood glucose levels were measured at 0 min timepoint and 15, 30, 60, 90 and 120 min timepoints post-injection (i.p.) of insulin (HumulinR, 1 U/kg body weight for lean mice or 1.25 U/kg body weight for HFD mice). […] The collected plasma was then measured for insulin content by using Ultra-Sensitive Mouse Insulin ELISA Kit (Crystal Chem, #90080). All mice and treatment groups were assessed blindly while performing experiments.

[2] = test system: SWELL1, LRRC8b, LRRC8c, LRRC8d, LRRC8e mRNA; type: cell-based; conditions: 3T3-F442A preadipocytes, 10 μM 96 h
Method: Data are represented as mean±SEM. Two-tailed unpaired t-test was used where *, ** and *** represents p<0.05, p<0.01 and p<0.001 respectively.
The cDNA synthesis, qRT-PCR reaction and quantification were carried out as described previously (Zhang et al., 2017).

[3] = test system: human Kv; conditions: cited from earlier work
[4] = molecular target: T1, R103E mutant SWELL1 (Homo sapiens, UniProt Q8IWT6, R103E); experiment: ICl,SWELL inhibition in R103E mutant SWELL1 overexpressing HEK-293 cells; type: cell-based; conditions: R103E expressing HEK cells, 10 and 7 μM
T1 construct: expressed in transfected cells; host or cells: HEK-293

SMILES: CCCCC1(C2CCCC2)Cc2cc(OCCCC(=O)O)c(Cl)c(Cl)c2C1=O (stereo not drawn) [SN-401, 4-((2-butyl-6,7-dichloro-2-cyclopentyl-1-oxo-2,3-dihydro-1H-inden-5-yl)oxy)butanoic acid]
Fasting blood glucose (FG) [1]: normalized
Glucose tolerance (GTT) [1]: normalized
Insulin-tolerance (ITT) [1]: markedly improved
SWELL1, LRRC8b, LRRC8c, LRRC8d or LRRC8e mRNA expression [2]: not associated with increases
Effect on human Kv channels [3]: no effect

ICl,SWELL inhibition in R103E mutant vs WT [4]: reduced
SMILES: CCCCC1(C2CCCC2)Cc2cc(OCCCCCC(=O)O)c(Cl)c(Cl)c2C1=O (stereo not drawn) [SN-406, 6-((2-butyl-6,7-dichloro-2-cyclopentyl-1-oxo-2,3-dihydro-1H-inden-5-yl)oxy)hexanoic acid]
